Data taken from patent publication US20180320217A1, “METHODS FOR SAMPLING AND MEASURING ORAL LAVAGE PROTEINS” (The Procter & Gamble Company, priority 2017, published 2018).
Where “and” joins values, the source holds several entries; their conditions need not be identical. Equal entries are not always repeated. Structures can show the parent of a compound that is named as a salt.

Experiments:
[1] = target: T1, Malate dehydrogenase (Sus scrofa, UniProt P00346); assay: Formation of formazan dyes: Malate dehydrogenase and 1-Methoxy PMS, absence of malate (TABLE 17); format: biochemical, pig heart; parameters: L-malate dehydrogenase (pig heart); purchased Sigma-Aldrich 10127248001 / 10127914001
T1 sequence (P00346 25-338): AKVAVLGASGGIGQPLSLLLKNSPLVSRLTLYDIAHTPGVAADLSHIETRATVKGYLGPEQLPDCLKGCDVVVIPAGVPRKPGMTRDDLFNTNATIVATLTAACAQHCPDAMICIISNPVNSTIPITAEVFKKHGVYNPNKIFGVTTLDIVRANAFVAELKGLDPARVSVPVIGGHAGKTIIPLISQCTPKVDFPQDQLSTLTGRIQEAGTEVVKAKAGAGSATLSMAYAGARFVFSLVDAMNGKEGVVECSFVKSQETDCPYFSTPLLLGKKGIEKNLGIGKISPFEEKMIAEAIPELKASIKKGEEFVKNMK

[2] = target: T1, Malate dehydrogenase; assay: Formation of formazan dyes: Malate dehydrogenase, malate and 1-Methoxy PMS (TABLE 18); format: biochemical, pig heart; parameters: L-malate dehydrogenase (pig heart); purchased Sigma-Aldrich 10127248001 / 10127914001
[3] = Formation of formazan dyes: control buffer, malate and 1-Methoxy PMS (TABLE 22); format: biochemical
[4] = tested on: diaphorase; assay: Formation of formazan dyes: NADH and diaphorase, absence of malate (TABLE 7); format: biochemical, Clostridium kluyveri; details: NADH and diaphorase, absence of malate
[5] = tested on: diaphorase; assay: Formation of formazan dyes: NADH, diaphorase and malate (TABLE 8); format: biochemical, Clostridium kluyveri; details: NADH, diaphorase and malate
[6] = Formation of formazan dyes: NADH, malate and 1-methoxy PMS (TABLE 16); format: biochemical
[7] = tested on: diaphorase; assay: Formation of formazan dyes: only diaphorase, not malate (TABLE 13); format: biochemical, Clostridium kluyveri; details: mean of three experiments
[8] = tested on: oral lavage; assay: Formation of formazan dyes: oral lavage, malate and diaphorase (TABLE 12); format: biochemical, human; details: oral lavage, malate and diaphorase
[9] = tested on: oral lavage; assay: Formation of formazan dyes: oral lavage and diaphorase, not malate (TABLE 11); format: biochemical, human
[10] = Formation of formazan dyes: control buffer and 1-Methoxy PMS, absence of malate (TABLE 21); format: biochemical
[11] = tested on: diaphorase; assay: Formation of formazan dyes: only diaphorase and malate (TABLE 14); format: biochemical, Clostridium kluyveri; details: mean of three experiments
[12] = tested on: Malate dehydrogenase and diaphorase; assay: Formation of formazan dyes: Malate dehydrogenase and diaphorase, absence of malate (TABLE 9); format: biochemical, pig heart
[13] = tested on: Malate dehydrogenase and diaphorase; assay: Formation of formazan dyes: Malate dehydrogenase, diaphorase and malate (TABLE 10); format: biochemical, pig heart

COc1cc([N+](=O)[O-])c(S(=O)(=O)[O-])cc1-n1nc(C(=O)Nc2ccccc2)n[n+]1-c1cc(S(=O)(=O)O)c([N+](=O)[O-])cc1OC [XTT, 2,3-Bis(2-methoxy-4-nitro-5-sulfophenyl)-2H-tetrazolium-5-carboxanilide inner salt]
Absorbance, formation of formazan dyes (Means) [1]: 0.61 and 0.72 and 0.80 and 0.82 and 0.84 and 0.85 and 0.91 and 0.93
Absorbance, formation of formazan dyes (Means) [2]: 2.09 and 3.28 and 3.71 and 3.96 and 4.00
Means absorbance 0 h [3]: 0.42
Means absorbance 1 h [3]: 0.48
Means absorbance 2 h [3]: 0.53
Means absorbance 3 h [3]: 0.59
Means absorbance 4 h [3]: 0.60
Means absorbance 6 h [3]: 0.77
Means absorbance 8 h [3]: 0.91
Means absorbance 10 h [3]: 1.03
Means absorbance 12 h [3]: 1.17
Formation of formazan dyes, absorbance, Means 0 h ([4]; 0 h): 2.22
Formation of formazan dyes, absorbance, Means 1 h ([4]; 1 h): 2.35
Formation of formazan dyes, absorbance, Means 2 h ([4]; 2 h): 2.36
Formation of formazan dyes, absorbance, Means 3 h ([4]; 3 h): 2.32
Formation of formazan dyes, absorbance, Means 4 h ([4]; 4 h): 2.40
Formation of formazan dyes, absorbance, Means 6 h ([4]; 6 h): 2.39
Formation of formazan dyes, absorbance, Means 8 h ([4]; 8 h): 2.45
Formation of formazan dyes, absorbance, Means 10 h ([4]; 10 h): 2.45
Formation of formazan dyes, absorbance, Means 12 h ([4]; 12 h): 2.46
Formation of formazan dyes, absorbance, Means 0 h ([5]; 0 h): 1.95
Formation of formazan dyes, absorbance, Means 1 h ([5]; 1 h): 2.20
Formation of formazan dyes, absorbance, Means 2 h ([5]; 2 h): 2.18
Formation of formazan dyes, absorbance, Means 3 h ([5]; 3 h): 2.17
Formation of formazan dyes, absorbance, Means 4 h ([5]; 4 h): 2.23
Formation of formazan dyes, absorbance, Means 6 h ([5]; 6 h): 2.28
Formation of formazan dyes, absorbance, Means 8 h ([5]; 8 h): 2.33
Formation of formazan dyes, absorbance, Means 10 h ([5]; 10 h): 2.41
Formation of formazan dyes, absorbance, Means 12 h ([5]; 12 h): 2.45
Absorbance, formation of formazan dyes (Means) [6]: 1.51 and 1.56 and 1.61 and 1.67 and 1.80 and 1.94 and 2.02 and 2.15
Absorbance, formation of formazan dyes (Means) ([7]; 0 h): 0.41
Absorbance, formation of formazan dyes (Means) ([7]; 1 h): 0.49
Absorbance, formation of formazan dyes (Means) ([7]; 2 h): 0.52
Absorbance, formation of formazan dyes (Means) ([7]; 3 h): 0.54
Absorbance, formation of formazan dyes (Means) ([7]; 4 h): 0.54
Absorbance, formation of formazan dyes (Means) ([7]; 6 h): 0.60
Absorbance, formation of formazan dyes (Means) ([7]; 8 h): 0.63
Absorbance, formation of formazan dyes (Means) ([7]; 10 h): 0.64
Absorbance, formation of formazan dyes (Means) ([7]; 12 h): 0.67
Formation of formazan dyes, absorbance, Means 0 h ([8]; 0 h): 0.75
Formation of formazan dyes, absorbance, Means 1 h ([8]; 1 h): 0.88
Formation of formazan dyes, absorbance, Means 2 h ([8]; 2 h): 0.94
Formation of formazan dyes, absorbance, Means 3 h ([8]; 3 h): 0.98
Formation of formazan dyes, absorbance, Means 4 h ([8]; 4 h): 1.19
Formation of formazan dyes, absorbance, Means 6 h ([8]; 6 h): 1.41
Formation of formazan dyes, absorbance, Means 8 h ([8]; 8 h): 1.73
Formation of formazan dyes, absorbance, Means 10 h ([8]; 10 h): 1.90
Formation of formazan dyes, absorbance, Means 12 h ([8]; 12 h): 2.08
Formation of formazan dyes, absorbance, Means 0 h ([9]; oral lavage and diaphorase, not malate, 0 h): 0.80
Formation of formazan dyes, absorbance, Means 1 h ([9]; oral lavage and diaphorase, not malate, 1 h): 0.98
Formation of formazan dyes, absorbance, Means 2 h ([9]; oral lavage and diaphorase, not malate, 2 h): 1.04
Formation of formazan dyes, absorbance, Means 3 h ([9]; oral lavage and diaphorase, not malate, 3 h): 0.99
Formation of formazan dyes, absorbance, Means 4 h ([9]; oral lavage and diaphorase, not malate, 4 h): 1.18
Formation of formazan dyes, absorbance, Means 6 h ([9]; oral lavage and diaphorase, not malate, 6 h): 1.24
Formation of formazan dyes, absorbance, Means 8 h ([9]; oral lavage and diaphorase, not malate, 8 h): 1.26
Formation of formazan dyes, absorbance, Means 10 h ([9]; oral lavage and diaphorase, not malate, 10 h): 1.27
Formation of formazan dyes, absorbance, Means 12 h ([9]; oral lavage and diaphorase, not malate, 12 h): 1.28
reduction to formazan dyes by pooled oral lavage ([9]; pooled oral lavage of high bleeder group, diaphorase, no added malate (TABLE 11)): changed to formazan dyes in a significant amount
conversion into colored formazan dyes in assay buffer containing 1-methoxy PMS [10]: slowly catalyze the conversion of tetrazolium salts into colored formazan dyes
Absorbance, formation of formazan dyes (Means) ([11]; 0 h): 0.39
Absorbance, formation of formazan dyes (Means) ([11]; 1 h): 0.45
Absorbance, formation of formazan dyes (Means) ([11]; 2 h): 0.48
Absorbance, formation of formazan dyes (Means) ([11]; 3 h): 0.53
Absorbance, formation of formazan dyes (Means) ([11]; 4 h): 0.52
Absorbance, formation of formazan dyes (Means) ([11]; 6 h): 0.57
Absorbance, formation of formazan dyes (Means) ([11]; 8 h): 0.63
Absorbance, formation of formazan dyes (Means) ([11]; 10 h): 0.69
Absorbance, formation of formazan dyes (Means) ([11]; 12 h): 0.73
Formation of formazan dyes, absorbance, Means 0 h ([12]; Malate dehydrogenase and diaphorase, absence of malate, 0 h): 0.39
Formation of formazan dyes, absorbance, Means 1 h ([12]; Malate dehydrogenase and diaphorase, absence of malate, 1 h): 0.44
Formation of formazan dyes, absorbance, Means 2 h ([12]; Malate dehydrogenase and diaphorase, absence of malate, 2 h): 0.46
Formation of formazan dyes, absorbance, Means 3 h ([12]; Malate dehydrogenase and diaphorase, absence of malate, 3 h): 0.50
Formation of formazan dyes, absorbance, Means 4 h ([12]; Malate dehydrogenase and diaphorase, absence of malate, 4 h): 0.50
Formation of formazan dyes, absorbance, Means 6 h ([12]; Malate dehydrogenase and diaphorase, absence of malate, 6 h): 0.54
Formation of formazan dyes, absorbance, Means 8 h ([12]; Malate dehydrogenase and diaphorase, absence of malate, 8 h): 0.57
Formation of formazan dyes, absorbance, Means 10 h ([12]; Malate dehydrogenase and diaphorase, absence of malate, 10 h): 0.58
Formation of formazan dyes, absorbance, Means 12 h ([12]; Malate dehydrogenase and diaphorase, absence of malate, 12 h): 0.66
reduction of tetrazolium dye in the absence of substrate malate ([12]; malate dehydrogenase and diaphorase (TABLE 9)): remained largely in oxidized forms
Formation of formazan dyes, absorbance, Means 0 h ([13]; Malate dehydrogenase, diaphorase and malate, 0 h): 1.21
Formation of formazan dyes, absorbance, Means 1 h ([13]; Malate dehydrogenase, diaphorase and malate, 1 h): 1.98
Formation of formazan dyes, absorbance, Means 2 h ([13]; Malate dehydrogenase, diaphorase and malate, 2 h): 2.41
Formation of formazan dyes, absorbance, Means 3 h ([13]; Malate dehydrogenase, diaphorase and malate, 3 h): 2.71
Formation of formazan dyes, absorbance, Means 4 h ([13]; Malate dehydrogenase, diaphorase and malate, 4 h): 3.02
Formation of formazan dyes, absorbance, Means 6 h ([13]; Malate dehydrogenase, diaphorase and malate, 6 h): 3.54
Formation of formazan dyes, absorbance, Means 8 h ([13]; Malate dehydrogenase, diaphorase and malate, 8 h): 3.86
Formation of formazan dyes, absorbance, Means 10 h ([13]; Malate dehydrogenase, diaphorase and malate, 10 h): 3.90
Formation of formazan dyes, absorbance, Means 12 h ([13]; Malate dehydrogenase, diaphorase and malate, 12 h): 3.80
conversion to reduced formazan dyes ([13]; malate dehydrogenase, diaphorase and malate (TABLE 10)): converted to reduced formazan dyes in a time-dependent manner
